Literature values in PubChem BioAssay AID1259409 (Chemical Carcinogenesis Research Information System (CCRIS), 2018).

System: rodent chemically induced tumor inhibition, incidence and multiplicity
Assay: CCRIS tumor inhibitor studies
Conditions: Carcinogen: DIETHYLNITROSAMINE, 55-18-5, N-METHYLNITROSOUREA, 684-93-5, 1,2-DIMETHYLHYDRAZINE, 540-73-8, Carcinogen: DIETHYLNITROSAMINE, 55-18-5, N-METHYLNITROSOUREA, 684-93-5, 1,2-DIMETHYLHYDRAZINE, 540-73-8, Dose [Inhibitor]: 0, Route [Inhibitor]: ORAL, Species: RAT, Strain/Sex: F344/MALE, Dose [Carcinogen]: 100 MG/KG DEN ONCE, 20 MG/KG MNU 4 TIMES, 40 MG/KG DMH 4 TIMES, 0.05% BBN IN DRINKING WATER FOR 2 WK, 0.1% DHPN IN D, Dose [Carcinogen]: 100 MG/KG DEN ONCE, 20 MG/KG MNU 4 TIMES, 40 MG/KG DMH 4 TIMES, 0.05% BBN IN DRINKING WATER FOR 2 WK, 0.1% DHPN IN D, Promoter: NONE USED

COc1cc(C=O)ccc1O
tumour outcome (control, treated, inhibition, significance) (N-BUTYL-N-(4-HYDROXYB, N-BUTYL-N-(4-HYDROXYB, 1% IN DIET FOR 4 WK BEGINNING 1 DAY PRIOR TO CARCINOGEN TREATMENT (STUDY DURATION: 36 WK), Target Tissue: Type of Lesion: KIDNEY: ADENOMA): 4/14 (29%), 4/15 (27%), 7%, not significant
tumour outcome (control, treated, inhibition, significance) (N-BUTYL-N-(4-HYDROXYB, N-BUTYL-N-(4-HYDROXYB, 1% IN DIET FOR 4 WK BEGINNING 1 DAY PRIOR TO CARCINOGEN TREATMENT (STUDY DURATION: 36 WK), Target Tissue: Type of Lesion: KIDNEY: NEPHROBLASTOMA): 7/14 (50%), 8/15 (53%), -6%, not significant
tumour outcome (control, treated, inhibition, significance) (N-BUTYL-N-(4-HYDROXYB, N-BUTYL-N-(4-HYDROXYB, 1% IN DIET FOR 4 WK BEGINNING 1 DAY PRIOR TO CARCINOGEN TREATMENT (STUDY DURATION: 36 WK), Target Tissue: Type of Lesion: LARGE INTESTINE: ADENOMA): 7/14 (50%), 6/15 (40%), 20%, not significant
tumour outcome (control, treated, inhibition, significance) (N-BUTYL-N-(4-HYDROXYB, N-BUTYL-N-(4-HYDROXYB, 1% IN DIET FOR 4 WK BEGINNING 1 DAY PRIOR TO CARCINOGEN TREATMENT (STUDY DURATION: 36 WK), Target Tissue: Type of Lesion: LARGE INTESTINE: CARCINOMA): 3/14 (21%), 11/15 (73%), -248%, p<0.01
tumour outcome (control, treated, inhibition, significance) (N-BUTYL-N-(4-HYDROXYB, N-BUTYL-N-(4-HYDROXYB, 1% IN DIET FOR 4 WK BEGINNING 1 DAY PRIOR TO CARCINOGEN TREATMENT (STUDY DURATION: 36 WK), Target Tissue: Type of Lesion: LUNG: ADENOMA): 6/14 (43%), 2/15 (13%), 70%, not significant
tumour outcome (control, treated, inhibition, significance) (N-BUTYL-N-(4-HYDROXYB, N-BUTYL-N-(4-HYDROXYB, 1% IN DIET FOR 4 WK BEGINNING 1 DAY PRIOR TO CARCINOGEN TREATMENT (STUDY DURATION: 36 WK), Target Tissue: Type of Lesion: SMALL INTESTINE: ADENOMA): 6/14 (43%), 3/15 (20%), 53%, not significant
tumour outcome (control, treated, inhibition, significance) (N-BUTYL-N-(4-HYDROXYB, N-BUTYL-N-(4-HYDROXYB, 1% IN DIET FOR 4 WK BEGINNING 1 DAY PRIOR TO CARCINOGEN TREATMENT (STUDY DURATION: 36 WK), Target Tissue: Type of Lesion: SMALL INTESTINE: CARCINOMA): 5/14 (36%), 2/15 (13%), 64%, not significant
tumour outcome (control, treated, inhibition, significance) (N-BUTYL-N-(4-HYDROXYB, N-BUTYL-N-(4-HYDROXYB, 1% IN DIET FOR 32 WK BEGINNING POST CARCINOGEN TREATMENT (STUDY DURATION: 36 WK), Target Tissue: Type of Lesion: KIDNEY: ADENOMA): 4/14 (29%), 9/15 (60%), -107%, not significant
tumour outcome (control, treated, inhibition, significance) (N-BUTYL-N-(4-HYDROXYB, N-BUTYL-N-(4-HYDROXYB, 1% IN DIET FOR 32 WK BEGINNING POST CARCINOGEN TREATMENT (STUDY DURATION: 36 WK), Target Tissue: Type of Lesion: KIDNEY: NEPHROBLASTOMA): 7/14 (50%), 11/15 (73%), -46%, not significant
tumour outcome (control, treated, inhibition, significance) (N-BUTYL-N-(4-HYDROXYB, N-BUTYL-N-(4-HYDROXYB, 1% IN DIET FOR 32 WK BEGINNING POST CARCINOGEN TREATMENT (STUDY DURATION: 36 WK), Target Tissue: Type of Lesion: LARGE INTESTINE: CARCINOMA): 3/14 (21%), 5/15 (33%), -57%, not significant
tumour outcome (control, treated, inhibition, significance) (N-BUTYL-N-(4-HYDROXYB, N-BUTYL-N-(4-HYDROXYB, 1% IN DIET FOR 32 WK BEGINNING POST CARCINOGEN TREATMENT (STUDY DURATION: 36 WK), Target Tissue: Type of Lesion: SMALL INTESTINE: ADENOMA): 6/14 (43%), 4/15 (27%), 37%, not significant
tumour outcome (control, treated, inhibition, significance) (N-BUTYL-N-(4-HYDROXYB, N-BUTYL-N-(4-HYDROXYB, 1% IN DIET FOR 32 WK BEGINNING POST CARCINOGEN TREATMENT (STUDY DURATION: 36 WK), Target Tissue: Type of Lesion: SMALL INTESTINE: CARCINOMA): 5/14 (36%), 1/15 (7%), 81%, not significant
tumour outcome (control, treated, inhibition, significance) (N-BUTYL-N-(4-HYDROXYBU, N-BUTYL-N-(4-HYDROXYBU, 1% IN DIET FOR 32 WK BEGINNING POST CARCINOGEN TREATMENT (STUDY DURATION: 36 WK), Target Tissue: Type of Lesion: LARGE INTESTINE: ADENOMA): 7/14 (50%), 8/15 (53%), -6%, not significant
tumour outcome (control, treated, inhibition, significance) (N-BUTYL-N-(4-HYDROXYBU, N-BUTYL-N-(4-HYDROXYBU, 1% IN DIET FOR 32 WK BEGINNING POST CARCINOGEN TREATMENT (STUDY DURATION: 36 WK), Target Tissue: Type of Lesion: LUNG: ADENOMA): 6/14 (43%), 3/15 (20%), 53%, p<0.05
